From US12686687B2, “Compounds and uses thereof” (Foghorn Therapeutics Inc., priority 2019, dated 2026) come the findings set out here.

Test [1] concerns the target T1, Nanoluciferase-BRD9 fusion protein (3×FLAG-NLuc-BRD9) in SYO-1 cells (Homo sapiens, UniProt Q9H8M2).
T1 construct: expressed in transfected cells; host or cells: SYO-1
T1 sequence (Q9H8M2 1-597): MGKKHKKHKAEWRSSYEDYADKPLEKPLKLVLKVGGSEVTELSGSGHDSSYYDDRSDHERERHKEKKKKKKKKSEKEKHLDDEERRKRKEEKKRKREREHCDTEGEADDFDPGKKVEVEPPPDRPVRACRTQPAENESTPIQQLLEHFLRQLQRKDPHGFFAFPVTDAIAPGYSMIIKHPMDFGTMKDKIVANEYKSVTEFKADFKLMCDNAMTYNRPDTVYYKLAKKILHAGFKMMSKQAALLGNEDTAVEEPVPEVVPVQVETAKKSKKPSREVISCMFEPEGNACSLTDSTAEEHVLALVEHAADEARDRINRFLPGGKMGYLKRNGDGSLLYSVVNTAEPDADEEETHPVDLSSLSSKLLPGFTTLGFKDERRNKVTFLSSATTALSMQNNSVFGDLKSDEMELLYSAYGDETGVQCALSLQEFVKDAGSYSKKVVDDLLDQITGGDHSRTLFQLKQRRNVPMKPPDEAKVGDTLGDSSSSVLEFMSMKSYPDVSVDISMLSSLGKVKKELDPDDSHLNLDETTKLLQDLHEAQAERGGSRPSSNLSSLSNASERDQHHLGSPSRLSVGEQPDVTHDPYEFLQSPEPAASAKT
Put plainly: SYO1 BRD9 NanoLuc degradation assay. It is filed as cell-based. The settings on record: 6 hours treatment, 1 μM top dose; read-out: SYO1 BRD9-NanoLuc degradation IC50. An outline of the steps: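 Stable SYO-1 line expressing 3×FLAG-NLuc-BRD9 was seeded at 8000 cells/well, then treated next day for 6 h with 10-point 3-fold dilutions (top 1 μM final). Nano-Glo luminescence was read. % inhibition was normalised to DMSO (high control) and 1 μM reference BRD9 degrader (low control).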

Test [2] addresses T2, BRD9 bromodomain (Flag-BRD9 P133-K239; Swiss Prot Q9H8M2) (Homo sapiens, UniProt Q9H8M2).
T2 construct: His-Flag-BRD9 (P133-K239); Swiss Prot Q9H8M2; His6 with TEV site (mgsshhhhhhenlyfq/) (N, cleaved yes); made in house
T2 sequence (Q9H8M2 133-239): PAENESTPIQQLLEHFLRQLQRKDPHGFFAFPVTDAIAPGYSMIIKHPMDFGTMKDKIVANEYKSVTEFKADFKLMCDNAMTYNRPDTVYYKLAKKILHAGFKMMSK
Put plainly: BRD9 bromodomain TR-FRET competition binding assay. The settings on record: 3 nM Flag-BRD9, 3.75 nM biotinylated ligand, 90 minutes at room temperature. The method, then:
Cleaved His tag was removed by purification. […] DMSO or 3-fold serially diluted compounds were then added to the Proxiplate followed by addition of Flag-BRD9. After a 10-minute incubation at room temperature, Eu-W1024 anti-FLAG (PerkinElmer, AD0273) was added.
(In TR-FRET formats the signal depends on donor and acceptor labels being close together.)

As usually defined, the IC50 is the point on the concentration scale where inhibition reaches its midpoint. A low value points to inhibition by little substance. On to `COc1cc(-c2cn(C)c(=O)c3cc(NC(=O)[C@@H]4CCCN(C(=O)CCCCOc5cccc6c5C(=O)N(C5CCC(=O)NC5=O)C6=O)C4)sc23)cc(OC)c1CN(C)C` (stereo partly drawn) [Compound D7, (3R)—N-(7-[4-[(dimethylamino)methyl]-3,5-dimethoxyphenyl]-5-methyl-4-oxothieno[3,2-c]pyridin-2-yl)-1-(5-[[2-(2,6-dioxopiperidin-3-yl)-1,3-dioxoisoindol-4-yl]oxy]pentanoyl)piperidine-3-carboxamide], for which, in test [1], the DC50 is above 100 nM. Moreover, in test [2], the IC50 is above 100 nM. Consider `COc1cc(-c2cn(C)c(=O)c3cc(NC(=O)[C@H]4CCCN(C(=O)CCCCOc5cccc6c5C(=O)N(C5CCC(=O)NC5=O)C6=O)C4)sc23)cc(OC)c1CN(C)C` (stereo partly drawn) [Compound D8, (3S)—N-(7-[4-[(dimethylamino)methyl]-3,5-dimethoxyphenyl]-5-methyl-4-oxothieno[3,2-c]pyridin-2-yl)-1-(5-[[2-(2,6-dioxopiperidin-3-yl)-1,3-dioxoisoindol-4-yl]oxy]pentanoyl)piperidine-3-carboxamide], for which the DC50 in test [1] was above 100 nM. The molecule also registered an IC50 in test [2] above 100 nM. As for `COc1cc(-c2cn(C)c(=O)c3cc(C(=O)NC4CCN(CCCCCOc5cccc6c5C(=O)N(C5CCC(=O)NC5=O)C6=O)CC4)sc23)cc(OC)c1CN(C)C` (centres unmarked) [Compound D11, 7-(4-((dimethylamino)methyl)-3,5-dimethoxyphenyl)-N-(1-(5-((2-(2,6-dioxopiperidin-3-yl)-1,3-dioxoisoindolin-4-yl)oxy)pentyl)piperidin-4-yl)-5-methyl-4-oxo-4,5-dihydrothieno[3,2-c]pyridine-2-carboxamide], in test [1], the DC50 was above 1000 nM. Further, in test [2], the IC50 was below 10 nM. For `COc1cc(-c2cn(C)c(=O)c3cc(C(=N)NC4CCS(=O)(=O)CC4)sc23)ccc1OCC(=O)NCCCCCCCCNc1cccc2c1CN(C1CCC(=O)NC1=O)C2=O` (centres unmarked) [Compound D2, 2-(4-[2-[N-(1,1-dioxo-A6-thian-4-yl)carbamimidoyl]-5-methyl-4-oxo-4H,5H-thieno[3,2-c]pyridin-7-yl]-2-methoxyphenoxy)-N-(8-[[2-(2,6-dioxopiperidin-3-yl)-1-oxo-2,3-dihydro-1H-isoindol-4-yl]amino]octyl)acetamide] the same measures were above 10 nM and below 10 nM. As for `COc1cc(-c2cn(C)c(=O)c3cc(NC(=O)C4CCCN(CCCCCOc5cccc6c5C(=O)N(C5CCC(=O)NC5=O)C6=O)C4)sc23)cc(OC)c1CN(C)C` (centres unmarked) [Compound D9, N-(7-[4-[(dimethylamino)methyl]-3,5-dimethoxyphenyl]-5-methyl-4-oxothieno[3,2-c]pyridin-2-yl)-1-(5-[[2-(2,6-dioxopiperidin-3-yl)-1,3-dioxoisoindol-4-yl]oxy]pentyl)piperidine-3-carboxamide], the DC50 in test [1] was above 1000 nM. This molecule registered an IC50 in test [2] above 10 nM. With `COc1cc(-c2cn(C)c(=O)c3cc(NC(=O)C4CCCN(C(=O)CCOCCOCCNc5cccc6c5C(=O)N(C5CCC(=O)NC5=O)C6=O)C4)sc23)cc(OC)c1CN(C)C` (centres unmarked) [Compound D5, N-(7-[4-[(dimethylamino)methyl]-3,5-dimethoxyphenyl]-5-methyl-4-oxothieno[3,2-c]pyridin-2-yl)-1-[3-[2-(2-[[2-(2,6-dioxopiperidin-3-yl)-1,3-dioxoisoindol-4-yl]amino]ethoxy)ethoxy]propanoyl]piperidine-3-carboxamide], the DC50 in test [1] was above 1000 nM. The same molecule registered an IC50 in test [2] above 100 nM. For `COc1cc(-c2cn(C)c(=O)c3cc(NC(=O)C4CCN(C)CC4)sc23)cc(OC)c1CN(C)CC(=O)NCCOCCOc1cccc2c1C(=O)N(C1CCC(=O)NC1=O)C2=O` (centres unmarked) [Compound D1, N-[7-(4-[[([[2-(2-[[2-(2,6-dioxopiperidin-3-yl)-1,3-dioxoisoindol-4-yl]oxy]ethoxy)ethyl]carbamoyl]methyl)(methyl)amino]methyl]-3,5-dimethoxyphenyl)-5-methyl-4-oxothieno[3,2-c]pyridin-2-yl]-1-methylpiperidine-4-carboxamide] the same measures were above 1000 nM and above 100 nM. Regarding `COc1cc(-c2cn(C)c(=O)c3cc(NC(=O)C4CCN(CCCCCOc5cccc6c5C(=O)N(C5CCC(=O)NC5=O)C6=O)CC4)sc23)cc(OC)c1CN(C)C` (centres unmarked) [Compound D6, N-(7-[4-[(dimethylamino)methyl]-3,5-dimethoxyphenyl]-5-methyl-4-oxothieno[3,2-c]pyridin-2-yl)-1-(5-[[2-(2,6-dioxopiperidin-3-yl)-1,3-dioxoisoindol-4-yl]oxy]pentyl)piperidine-4-carboxamide], the DC50 in test [1] was above 1000 nM. In test [2], this molecule displayed an IC50 below 10 nM.

`COc1cc(-c2cn(C)c(=O)c3cc(NC(=O)C4CCN(C(=O)CCOCCOCCNc5cccc6c5C(=O)N(C5CCC(=O)NC5=O)C6=O)CC4)sc23)cc(OC)c1CN(C)C` (centres unmarked) [Compound D4, N-(7-[4-[(dimethylamino)methyl]-3,5-dimethoxyphenyl]-5-methyl-4-oxothieno[3,2-c]pyridin-2-yl)-1-[3-[2-(2-[[2-(2,6-dioxopiperidin-3-yl)-1,3-dioxoisoindol-4-yl]amino]ethoxy)ethoxy]propanoyl]piperidine-4-carboxamide]: the DC50 in test [1] is above 10 nM. This molecule yielded an IC50 in test [2] above 10 nM.

`COc1cc(-c2cn(C)c(=O)c3cc(C(=O)NC4CCN(CCCCCOc5ccc6c(c5)C(=O)N(C5CCC(=O)NC5=O)C6=O)CC4(F)F)sc23)cc(OC)c1CN(C)C` (centres unmarked) [Compound D15, 7-[4-[(dimethylamino)methyl]-3,5-dimethoxyphenyl]-N-[1-(5-[[2-(2,6-dioxopiperidin-3-yl)-1,3-dioxoisoindol-5-yl]oxy]pentyl)-3,3-difluoropiperidin-4-yl]-5-methyl-4-oxothieno[3,2-c]pyridine-2-carboxamide]: in test [1], the DC50 was below 10 nM. This molecule registered an IC50 in test [2] below 10 nM. In the case of `COc1cc(-c2cn(C)c(=O)c3cc(C(=O)NC4CCN(C)CC4)sc23)cc(OC)c1CN(C)CC(=O)NCCOCCOc1cccc2c1C(=O)N(C1CCC(=O)NC1=O)C2=O` (centres unmarked) [Compound D14, 7-(4-[[([[2-(2-[[2-(2,6-dioxopiperidin-3-yl)-1,3-dioxoisoindol-4 yl]oxy]ethoxy)ethyl]carbamoyl]methyl)(methyl)amino]methyl]-3,5-dimethoxyphenyl)-5-methyl-N-(1-methylpiperidin-4-yl)-4-oxothieno[3,2-c]pyridine-2-carboxamide], the DC50 in test [1] was above 100 nM. Besides, in test [2], the IC50 was above 10 nM. `COc1cc(-c2cn(C)c(=O)c3cc(C(=N)NC4CCS(=O)(=O)CC4)sc23)ccc1OCC(=O)O` [Compound B8, 2-(4-[2-[N-(1,1-dioxo-1λ6-thian-4-yl)carbamimidoyl]-5-methyl-4-oxo-4H,5H-thieno[3,2-c]pyridin-7-yl]-2-methoxyphenoxy)acetic Acid Trifluoroacetic Acid]: in test [2], the IC50 was above 10 nM.

In the case of `COc1ccc(-c2cn(C)c(=O)c3ccsc23)cc1OC` [Compound B10, 7-(3,4-dimethoxyphenyl)-5-methyl-4H,5H-thieno[3,2-c]pyridin-4-one], in test [2], the IC50 is above 10 nM. For the molecule `COc1cc(-c2cn(C)c(=O)c3cc(C(=O)NC4CCN(C(=O)CCCCOc5cccc6c5C(=O)N(C5CCC(=O)NC5=O)C6=O)CC4)sc23)cc(OC)c1CN(C)C` (centres unmarked) [Compound D10, 7-(4-((dimethylamino)methyl)-3,5-dimethoxyphenyl)-N-(1-(5-((2-(2,6-dioxopiperidin-3-yl)-1,3-dioxoisoindolin-4-yl)oxy)pentanoyl)piperidin-4-yl)-5-methyl-4-oxo-4,5-dihydrothieno[3,2-c]pyridine-2-carboxamide], in test [1], the DC50 was below 10 nM. The IC50 in test [2] is below 10 nM. As for `COc1cc(-c2cn(C)c(=O)c3cc(NC(=O)C4CCN(C(=O)CCCCOc5cccc6c5C(=O)N(C5CCC(=O)NC5=O)C6=O)CC4)sc23)cc(OC)c1CN(C)C` (centres unmarked) [Compound D12, N-(7-[4-[(dimethylamino)methyl]-3,5-dimethoxyphenyl]-5-methyl-4-oxothieno[3,2-c]pyridin-2-yl)-1-(5-[[2-(2,6-dioxopiperidin-3-yl)-1,3-dioxoisoindol-4-yl]oxy]pentanoyl)piperidine-4 carboxamide], in test [1], the DC50 is below 10 nM. Further, in test [2], the IC50 is below 10 nM. `COc1cc(-c2cn(C)c(=O)c3cc(C(=O)N4CCN(C)CC4)sc23)cc(OC)c1CN(C)C` [Compound B7, 7-[4-[(dimethylamino)methyl]-3,5-dimethoxyphenyl]-5-methyl-2-(4-methylpiperazine-1-carbonyl)-4H,5H-thieno[3,2-c]pyridin-4-one] showed an IC50 in test [2] above 100 nM.
